Results on two compounds are retold here after PMC6826492, “Experimental and Computational Study of the Antioxidative Potential of Novel Nitro and Amino Substituted Benzimidazole/Benzothiazole-2-Carboxamides with Antiproliferative Activity” (Antioxidants, 2019).

Molecules are shown by their SMILES. Where two headings read alike, the source gives them in different places.

What is called IC50 is the point on the concentration scale where inhibition reaches its midpoint.

A short description of assay [1]: Ferric reducing/antioxidant power (FRAP assay). Type of assay: biochemical. Particulars: means ± standard deviation; absorbance at 593 nm. In short, it runs like this:
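Microplate adaptation of the FRAP method: reduction of ferric–TPTZ complex to the blue Fe^2+ form followed by absorbance at 593 nm. Triplicate measurements, averaged and expressed as Fe^2+ equivalents (µmol).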

Assay [2] can be described thus: DPPH free radical scavenging. Also on record: key to DPPH IC50: –: Very low activity. As to conditions: after 30 min of incubation with 100 μM DPPH. Format: biochemical. An outline of the steps:
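Test molecules in DMSO were mixed in equal volume with DPPH at final 50 µM in absolute ethanol. Ethanol and DMSO served as controls.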

Assay [3] concerns HCT116 cell line. The assay is described as follows: Cellular ROS measurement assay (DCFH-DA, flow cytometry). Format: cell-based, human. As to conditions: HCT116, 10 µM compounds (2 mM H2O2 positive control), 1 h, DCF-DA; *** p < 0.001, ns not significant. The protocol:
Figure S53. Impact of compounds on cellular ROS production was measured with fluorescent dye DCF-DA in HCT116 cell line, after the treatment with 10 µM compounds for 1h. H 2O2 was used as a positive control. Data presented here are the results of 3 independent measurements, done in duplicates. One-way ANOVA with Tukey’s post-hoc test was used for statistical analysis, ***- p < 0.001. […]
Human colon carcinoma cell line HCT116 was grown in DMEM medium with the addition of 10% fetal bovine serum (FBS), 2 mM L-glutamine, 100 U/ml penicillin and 100 µg/ml streptomycin, and cultured as monolayers at 37°C in a humidified atmosphere with 5% CO2.
Cellular ROS measurement assay
For the cellular ROS measurement assay, 2.5 × 10^4 cells were seeded into 96-well microtiter plates 24h prior to experiment. Next day, cells were trypsinized and incubated in FBS-free DMEM medium with 20 µM DCFH-DA fluorescence dye for 45 minutes. After the incubation, compounds were added without washing and cells were treated with 2 mM H 2O2 as a positive control and 10 µM compounds 8, 14 and 26 for 1 hour. Cells were washed in PBS and DCFH-DA signal was measured by flow cytometry, in FL1 channel. […]
(Flow cytometry measures light scatter and fluorescence of single cells or particles in a stream.)

Another assay deals with MCF-7 (breast carcinoma). The experiment in a line: Antiproliferative activity in vitro (MTT assay). As to conditions: 72 h incubation, concentration that causes 50% growth inhibition. Format: cell-based, human. An outline of the steps:
(§1)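 Cells grown in DMEM with 10% FBS at 37 °C, 5% CO2, seeded at 2 × 10^3 cells/well and allowed 24 h to attach, then exposed to five serial 10-fold compound dilutions for 72 h. Growth read by MTT; IC50 from linear regression of concentrations bracketing 50%; quadruplicate, at least two experiments.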
Background: Formazan colour is commonly taken as a measure of viable cells.

A further assay concerns H 460 (lung carcinoma). The assay is described as follows: Antiproliferative activity in vitro (MTT assay). Format: cell-based, human. As to conditions: 72 h incubation, concentration that causes 50% growth inhibition. In short, it runs like this:
as §1

The subject of assay [4] is HCT 116 (colon carcinoma). The assay is described as follows: Antiproliferative activity in vitro (MTT assay). Type of assay: cell-based, human. As to conditions: 72 h incubation, concentration that causes 50% growth inhibition, read-out: IC50 HCT116. An outline of the steps:
as §1

For assay [5], the system named is HCT116 cell line. The experiment in a line: Mitochondrial ROS measurement assay (MitoSOX, flow cytometry). Type of assay: cell-based, human. Particulars: HCT116, 10 µM compounds (3 µM Rotenone positive control), 1 h, *** p < 0.001, ns not significant.
The next assay has as its system HCT 116 cells. The assay is described as follows: Antioxidative activity assay in cells (TBHP-induced ROS, DCFH-DA). Format: cell-based, human. As to conditions: 100 µM TBHP + 10 µM compound, 1 h, DCFH-DA fluorescence. The protocol:
For the antioxidative activity assay, 2.5 × 10^4 cells were seeded into 96-well microtiter plates and left to attach for 24 h. The next day, cells were washed with PBS and incubated in FBS-free DMEM medium with 25 µM DCFH-DA fluorescence dye. After 45 min of incubation, medium was discarded, and cells were washed with PBS. After the washing step, cells were incubated with 100 µM tert-Butyl hydroperoxide (TBHP) alone or in combination with antioxidative agents (50 mM N-Acetyl-L-cysteine—NAC, or 10 µM tested compounds) in PBS, for 1 h at 37 °C. DCFH-DA fluorescence was recorded on a microplate fluorimeter reader (Tecan) with excitation beam of 485 nm, while the emitted fluorescence was collected at 535 nm. All tests were presented as medians of three independent measurements, done in triplicates. One-way ANOVA with Tukey’s post-hoc test was used for statistical analysis, * p < 0.05, ** p < 0.01, *** p < 0.001.
In order to test the antioxidant activity of selected systems in tumor cells (Figure 1), we treated HCT 116 cells with tert-Butyl hydroperoxide (TBHP), a substance commonly used for inducing oxidative stress in cells and tissues, alone or in a combination with a known antioxidative agent N-Acetyl-L-cysteine (NAC) or tested compounds [35]. We measured the formation of oxidative stress by-products using 2′,7′-dichlorodihydrofluorescein diacetate (DCFH-DA). We selected system 8 showing pronounced antiproliferative/cytotoxic activity, but no antioxidant capacity in DPPH/FRAP assays, 29 showing exceptionally pronounced antioxidative activity in DPPH/FRAP tests, 14 showing negligible antiproliferative but strong antioxidant capacity in both DPPH/FRAP assays, and 26 showing similarly strong antiproliferative and radical trapping activity in DPPH assay, but rather modest reducing power in FRAP assay. None of the compounds influenced the basal level of ROS in the cells. […] On the other hand, no effect was obtained upon treatment with either 8 or 14 (Figure 1). We additionally tested the impact of the selected compounds on cellular and mitochondrial ROS production in HCT 116 cells using fluorescent dyes, DCFH-DA for cellular and MitoSOX for mitochondrial ROS detection (Supplementary Materials, Figures S53 and S54).
Figure 1 Antioxidative activity of selected systems. HCT 116 cells were treated with the combination of tert-Butyl hydroperoxide (TBHP, 100 uM) and N-Acetyl-L-cysteine (NAC, 50 mM) or tested compounds 8, 14, 26, and 29 (10 µM) for 1 h. The level of reactive oxygen species (ROS) was measured with fluorescent dye 2′,7′-dichlorodihydrofluorescein diacetate (DCFH-DA) using fluorimeter. Treatment with 100 uM TBHP alone was used as a control for ROS induction. Data presented here are the results of three independent measurements, done in triplicates. […]

The next assay deals with three human cancer cells. The assay is described as follows: Antiproliferative activity in vitro, range over the tumor cell lines. As to conditions: HCT116, MCF-7, H 460. Format: cell-based. The protocol: The experiments were performed on four human cell lines, including HCT 116 (colon carcinoma), H 460 (lung carcinoma), MCF-7 (breast carcinoma), and HEK 293 (human embryonic kidney cells), in line with previously published experimental procedures. Briefly, the cells were grown in DMEM medium with the addition of 10% fetal bovine serum (FBS), 2 mM L-glutamine, 100 U/mL penicillin, and 100 µg/mL streptomycin, and cultured as monolayers at 37 °C in a humidified atmosphere with 5% CO2. Cells were seeded at 2 × 10^3 cells/well in a standard 96-well microtiter plates and left to attach for 24 h. The next day, a test compound was added in five serial 10-fold dilutions. The rate of cell growth was evaluated after 72 h of incubation with MTT assays. The obtained results are expressed as IC50 values, calculated from the concentration-response curve using linear regression analysis by fitting the test concentrations that give PG values above and below the reference value (i.e., 50%). Each test was performed in quadruplicate in at least two individual experiments.

In assay [6] the test system is HEK 293 (human embryonic kidney cells). The assay is described as follows: Cytotoxic activity on non-cancerous cells (MTT assay). Format: cell-based. Particulars: for IC50: Homo sapiens, HEK293, non-tumor cell line, 72 h incubation, MTT, concentration that causes 50% growth inhibition. In short, it runs like this: as §1

For the compound `COc1cc(C(=O)Nc2nc3ccc([N+](=O)[O-])cc3[nH]2)cc(OC)c1OC` [Compound 8, 3,4,5-trimethoxy-N-[5(6)-nitrobenzimidazol-2-yl]benzamide], the FRAP in assay [1] is 89.7 ± 6.2 mmolFe^2+/mmolC. Besides, in assay [2], the “DPPH IC50” value is reported as “–”. Moreover, the “cellular ROS production (significance vs control)” value in the assay on HCT116 cell line [3] is recorded as “ns”. Besides, the IC50 with MCF-7 (breast carcinoma) (Homo sapiens, MCF7, 72 h) is 1000 ± 200 nM; in the assay with H 460 (lung carcinoma) (Homo sapiens, NCI-H460, 72 h), 2000 ± 200 nM; in [4] (Homo sapiens, HCT-116, 72 h), 600 ± 30 nM; in the assay with three human cancer cells it was 600 to 2000 nM; in assay [6], 2000 ± 500 nM. In addition, the “mitochondrial ROS production (significance vs control)” value with HCT116 cell line [5] is given as “ns”. Moreover, in the assay with HCT 116 cells, the “ROS levels when oxidative stress was induced” value was “no effect”. Moreover, the “lower activity towards HEK293 cells than towards HCT116 cells (times)” value in assay [6] (HEK293 vs HCT116) is on record as “≈ 3 times”.
In [1], `COc1ccccc1C(=O)Nc1nc2ccc(N)cc2s1.Cl` [Compound 21, N-(6-aminobenzothiazol-2-yl)-2-methoxybenzamide hydrochloride] had an FRAP of 214.3 ± 3.4 mmolFe^2+/mmolC. In addition, the IC50 was 12000 ± 1100 nM in assay [2]; 3000 ± 700 nM in the assay on MCF-7 (breast carcinoma); 4000 ± 100 nM in the assay with H 460 (lung carcinoma); 10000 ± 8000 nM in assay [4]; 3000 to 10000 nM in the assay on three human cancer cells; 25000 ± 1500 nM in [6].
